Test results taken from patent publication US20100316628A1, “AGENTS AND METHODS FOR TREATING RESPIRATORY DISORDERS” (THE GENERAL HOSPITAL CORPORATION, priority 2008, published 2010).
“Also recorded” adds a separate entry of the source.

Key:
[1] = tested on: clear cells; assay: In vivo luminal microperfusion of cauda epididymidis; quantification of V-ATPase apical membrane accumulation / microvilli elongation in clear cells; design: species or system rat; conditions: for effect on ANGII-induced V-ATPase apical accumulation and microvilli elongation: 10 min pre-treatment, then ANGII 20 min with agent present, PD123319 1 μM, losartan 1 μM, ODQ 3 μM, L-NAME 100 μM; for extension of V-ATPase-labeled microvilli versus control: mean±SEM
Protocol: (§1) Rats were anesthetized and the cauda epididymidis was luminally perfused in vivo, harvested and fixed in PLP, as described previously (Beaulieu et al., 2005; Pastor-Soler et al., 2003; Wong and Yeung, 1978).
Immunofluorescence labeling was performed on cryostat sections, as described previously (Beaulieu et al., 2005; Pastor-Soler et al., 2003). Primary antibodies, the AGTR2 peptide and secondary antibodies used are listed in supplementary material. Slides were mounted in Vectashield (Vector Labs, Burlingame, Calif.) with or without DAPI. For confocal microscopy, nuclei were stained using TOPRO-3 iodide (Invitrogen, Carlsbad, Calif.). Immunostained sections were examined using a Nikon E800 microscope (Nikon Instruments, Melville, N.Y.). Digital images were acquired with IPLab Spectrum software (Scanalytics, Fairfax, Va.) and imported into Adobe Photoshop. Sections were also examined using a […] confocal microscope (Zeiss Laboratories). Z-series (0.1-μm interval) were imported into Volocity software (Improvision Inc., version 4.1) for 3D reconstruction and final animations were exported as Quicktime movies.
The level of accumulation of V-ATPase in clear cell microvilli was quantified using IPLab software as described previously (Beaulieu et al., 2005; Pastor-Soler et al., 2003). 10 μm sections of microperfused cauda epididymidis were immunostained under identical conditions, and confocal images were acquired using the same parameters. The segmentation procedure of IPLab was used to measure the area of V-ATPase-positive microvilli, which was normalized against the length of apical pole of each cell (Beaulieu et al., 2005; Pastor-Soler et al., 2003). At least three epididymides from different animals were perfused for each condition, and a minimum of 10 cells/tissue were examined for a total of at least 30 cells/condition.

[2] = tested on: proximal VD; assay: Detection of proton secretion in cut-open proximal VD with a self-referencing proton-selective electrode; design: species or system rat; conditions: for proton secretion (effect of the added agent): ANGII 1 μM added to the bath, then concanamycin A 1 μM
Protocol: The proximal VD was cut open to expose the apical surface of the epithelium and anchored onto a custom-made chamber. Proton secretion was measured using a self-referencing proton-selective electrode, as described previously (Beaulieu et al., 2005; Breton et al., 1996; Smith et al., 2007).

[3] = tested on: clear cells; assay: Immunogold electron microscopy and quantification of V-ATPase gold labeling in clear cells of perfused epididymis; assay type: in vivo, rat; conditions: luminal ANGII 1 μM vs control
Protocol: as §1
Pieces of PLP-fixed epididymis were embedded at −45° C. using HM20 resin (Electron Microscopy Sciences, Hatfield, Pa.) in a Leica EM AFS, and ultrathin sections were cut, as described previously (Da Silva et al., 2007; Pastor-Soler et al., 2003). Sections were immunostained for the V-ATPase A subunit, followed by goat anti-rabbit IgG coupled to 15 nm gold (Ted Pella, Reading, Calif.). Grids were examined in a JEOL 1011 electron microscope. Images were acquired using an AMT digital imaging system.
The number of V-ATPase associated gold particles on the apical membrane and microvilli was counted for each clear cell (Da Silva et al., 2007; Pastor-Soler et al., 2003). To determine the density of V-ATPase molecules along the apical membrane, the number of gold particles was divided by the length of apical membrane, including microvilli, of each cell. This value is referred to as “gold/μm apical membrane”. To determine the relative density of the V-ATPase at the cell surface, the number of gold particles was normalized for the width of the cell, measured at the base of the microvilli (gold/μm cell width).

Nc1nc2c(nc(Sc3ccc(Cl)cc3)n2[C@@H]2O[C@@H]3COP(=O)(O)O[C@H]3[C@H]2O)c(=O)[nH]1 [p-cpt-cGMP]
elongation of V-ATPase-rich microvilli compared to control ([1]; 1 mM in luminal perfusate, 20 min): significant elongation; also recorded: marked elongation

O=c1onc2cnc3ccccc3n12 [ODQ]
effect on ANGII-induced V-ATPase apical accumulation and microvilli elongation [1]: completely abolished

angiotensin II (DRVYIHPF; Angiotensin-2; UniProt P01019 25-32, looked up) [ANGII, peptide hormone; agonist of AGTR1 and AGTR2 receptors]
proton secretion (effect of the added agent) [2]: sustained increase in proton secretion
increase of concanamycin-sensitive proton secretion compared to control ([2]; ANGII 1 μM, measured 30 min after addition, n=7, P<0.05): 68%
extension of V-ATPase-labeled microvilli versus control ([1]; ANGII 0.1 μM in luminal perfusate, 20 min): 141±4%
extension of V-ATPase-labeled microvilli versus control ([1]; ANGII 1 μM in luminal perfusate, 20 min): 153±7%
V-ATPase-labeled microvilli seen by immunogold labeling [3]: longer and more numerous V-ATPase-labeled microvilli are detected
density of V-ATPase molecules in microvilli (Gold/μm apical membrane) ([3]; P<0.0005): significant increase
total number of V-ATPase molecules located at the cell surface (Gold/μm cell width) ([3]; P<0.0005): further amplified compared to control

Cc1cc(Cn2cnc3c2C[C@@H](C(=O)O)N(C(=O)C(c2ccccc2)c2ccccc2)C3)ccc1N(C)C [PD123319]
effect on ANGII-induced V-ATPase apical accumulation and microvilli elongation [1]: prevented the stimulatory effect of ANGII; also recorded: inhibited the effect of ANGII at both 0.1 and 1 μM concentrations

CCCCc1nc(Cl)c(CO)n1Cc1ccc(-c2ccccc2-c2nn[nH]n2)cc1 [Losartan]
effect on ANGII-induced V-ATPase apical accumulation and microvilli elongation [1]: no inhibitory effect

C/C=C/[C@H]1O[C@@](O)([C@@H](C)[C@H](O)[C@H](C)[C@H]2OC(=O)/C(OC)=C/C(C)=C/[C@@H](C)[C@@H](O)[C@@H](CC)[C@@H](O)[C@H](C)C/C(C)=C/C=C/[C@@H]2OC)C[C@@H](O[C@H]2C[C@@H](O)[C@H](OC(N)=O)[C@@H](C)O2)[C@@H]1C [concanamycin A]
proton secretion (effect of the added agent) [2]: markedly inhibited; also recorded: marked inhibition
effect of pre-incubation on the proton secretion response to ANGII ([2]; pre-incubation of the tissue for 10 min, data not shown): prevented the response to ANGII
